In PubChem BioAssay AID1963963 (Molecular Pharmacology Branch, DTP, NCI, 2024):

Test system: 958667-338-R-J2-PDC tumor spheroids viability
Assay: Anticancer human tumor 958667-338-R-J2-PDC patient-derived colon adenocarcinoma cell line growth inhibition [PI3K]
Conditions: spheroids with HUVEC and MSC; for viability, T/C: stronger effect = lower value
In short: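 Tumor cells were combined with HUVEC and MSCs into spheroids, then dosed with PI3K-inhibitor combinations over half-log ranges capped near clinical Cmax or 10 microM.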

[1] = curve of first compound, second compound 0.0316 µM
[2] = curve of first compound, second compound 0.1 µM
[3] = curve of first compound, second compound 0.316 µM
[4] = curve of first compound, second compound 1 µM
[5] = curve of first compound, second compound 3.16 µM
[6] = curve of first compound, second compound 10 µM
[7] = second compound 0.0316 µM, first compound 0.00316 µM
[8] = second compound 0.0316 µM, first compound 0.01 µM
[9] = second compound 0.0316 µM, first compound 0.0316 µM
[10] = second compound 0.0316 µM, first compound 0.1 µM
[11] = second compound 0.0316 µM, first compound 0.316 µM
[12] = second compound 0.0316 µM, first compound 1 µM
[13] = second compound 0.1 µM, first compound 0.00316 µM
[14] = second compound 0.1 µM, first compound 0.01 µM
[15] = second compound 0.1 µM, first compound 0.0316 µM
[16] = second compound 0.1 µM, first compound 0.1 µM
[17] = second compound 0.1 µM, first compound 0.316 µM
[18] = second compound 0.1 µM, first compound 1 µM
[19] = second compound 0.316 µM, first compound 0.00316 µM
[20] = second compound 0.316 µM, first compound 0.01 µM
[21] = second compound 0.316 µM, first compound 0.0316 µM
[22] = second compound 0.316 µM, first compound 0.1 µM
[23] = second compound 0.316 µM, first compound 0.316 µM
[24] = second compound 0.316 µM, first compound 1 µM
[25] = second compound 1 µM, first compound 0.00316 µM
[26] = second compound 1 µM, first compound 0.01 µM
[27] = second compound 1 µM, first compound 0.0316 µM
[28] = second compound 1 µM, first compound 0.1 µM
[29] = second compound 1 µM, first compound 0.316 µM
[30] = second compound 1 µM, first compound 1 µM
[31] = second compound 3.16 µM, first compound 0.00316 µM
[32] = second compound 3.16 µM, first compound 0.01 µM
[33] = second compound 3.16 µM, first compound 0.0316 µM
[34] = second compound 3.16 µM, first compound 0.1 µM
[35] = second compound 3.16 µM, first compound 0.316 µM
[36] = second compound 3.16 µM, first compound 1 µM
[37] = second compound 10 µM, first compound 0.00316 µM
[38] = second compound 10 µM, first compound 0.01 µM
[39] = second compound 10 µM, first compound 0.0316 µM
[40] = second compound 10 µM, first compound 0.1 µM
[41] = second compound 10 µM, first compound 0.316 µM
[42] = second compound 10 µM, first compound 1 µM
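Note: spheroids exposed to compounds for seven days before readout.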

CCN1CCN(Cc2ccc(Nc3ncc(F)c(-c4cc(F)c5nc(C)n(C(C)C)c5c4)n3)nc2)CC1 + CC(Nc1ncnc2nc[nH]c12)c1cc2cccc(Cl)c2c(=O)n1-c1ccccc1
IC50 [1]: > 1000 nM | IC50 [2]: > 1000 nM | IC50 [3]: > 1000 nM | IC50 [4]: > 1000 nM | IC50 [5]: > 1000 nM | IC50 [6]: > 1000 nM | viability, T/C [7]: 91.2% | viability, T/C [8]: 98.2% | viability, T/C [9]: 98.8% | viability, T/C [10]: 76.2% | viability, T/C [11]: 66.1% | viability, T/C [12]: 63.4% | viability, T/C [13]: 87.2% | viability, T/C [14]: 88.9% | viability, T/C [15]: 87.3% | viability, T/C [16]: 83% | viability, T/C [17]: 68.8% | viability, T/C [18]: 65.2% | viability, T/C [19]: 89.2% | viability, T/C [20]: 97% | viability, T/C [21]: 82.2% | viability, T/C [22]: 70.8% | viability, T/C [23]: 71.4% | viability, T/C [24]: 71.2% | viability, T/C [25]: 102% | viability, T/C [26]: 71.1% | viability, T/C [27]: 86.2% | viability, T/C [28]: 66.1% | viability, T/C [29]: 69% | viability, T/C [30]: 66.2% | viability, T/C [31]: 108% | viability, T/C [32]: 89.7% | viability, T/C [33]: 84% | viability, T/C [34]: 65.5% | viability, T/C [35]: 64% | viability, T/C [36]: 55.9% | viability, T/C [37]: 90% | viability, T/C [38]: 82.8% | viability, T/C [39]: 77.8% | viability, T/C [40]: 57.8% | viability, T/C [41]: 57.8% | viability, T/C [42]: 53.9%

CCN1CCN(Cc2ccc(Nc3ncc(F)c(-c4cc(F)c5nc(C)n(C(C)C)c5c4)n3)nc2)CC1 + Cc1nc(NC(=O)N2CCCC2C(N)=O)sc1-c1ccnc(C(C)(C)C(F)(F)F)c1
IC50 [1]: > 1000 nM | IC50 [2]: > 1000 nM | IC50 [3]: > 1000 nM | IC50 [4]: 684 nM | IC50 [5]: 29.4 nM | IC50 [6]: 30.5 nM | viability, T/C [7]: 96.6% | viability, T/C [8]: 108% | viability, T/C [9]: 93.5% | viability, T/C [10]: 81.5% | viability, T/C [11]: 64.7% | viability, T/C [12]: 73.9% | viability, T/C [13]: 97.6% | viability, T/C [14]: 112% | viability, T/C [15]: 85% | viability, T/C [16]: 77.1% | viability, T/C [17]: 86.1% | viability, T/C [18]: 70.4% | viability, T/C [19]: 85.5% | viability, T/C [20]: 86% | viability, T/C [21]: 79.7% | viability, T/C [22]: 84.6% | viability, T/C [23]: 68% | viability, T/C [24]: 61.8% | viability, T/C [25]: 94.5% | viability, T/C [26]: 67.4% | viability, T/C [27]: 72.8% | viability, T/C [28]: 59.7% | viability, T/C [29]: 57.4% | viability, T/C [30]: 45.5% | viability, T/C [31]: 66.4% | viability, T/C [32]: 86.1% | viability, T/C [33]: 48.1% | viability, T/C [34]: 47.1% | viability, T/C [35]: 47.9% | viability, T/C [36]: 35.8% | viability, T/C [37]: 54.2% | viability, T/C [38]: 60.8% | viability, T/C [39]: 44.7% | viability, T/C [40]: 46.5% | viability, T/C [41]: 36.5% | viability, T/C [42]: 31.3%

CC(Nc1ccc2c(c1)OCCn1cc(N3C(=O)OCC3C(F)F)nc1-2)C(N)=O (stereo not given)
viability, T/C (compound 0.01 µM): 100% [middle of 7 runs] | viability, T/C (compound 0.0316 µM): 96.9% [middle of 7 runs] | viability, T/C (compound 0.1 µM): 80.8% [middle of 7 runs] | viability, T/C (compound 0.316 µM): 70.7% [middle of 7 runs] | viability, T/C (compound 1 µM): 64.9% [middle of 7 runs] | IC50 (compound alone, run of 06/12/2023): > 1000 nM
